Assay results: patent US9211262B2, “Injectable pharmaceutical compositions of an anthracenedione derivative with anti-tumoral activity” (CTI BioPharma Corp., priority 2002, dated 2015)

Key:
YC-8 lymphoma = settings: wide range of doses; cited from earlier work
ascitic L1210 leukaemia = settings: wide range of doses; cited from earlier work
[1] = Stability in solution in common solvents for parenteral administration; type: physicochemical; settings: injectable liquid compositions
[2] = in vivo; cited from earlier work
[3] = Solubility in water and sodium chloride solutions; type: physicochemical
From the text: However, the presence of sodium chloride requires the use of long lyophilisation cycles due to the low glass transition temperature observed.

stability in solution [1]: problematic
solubility in sodium chloride solutions ([3]; sodium chloride solutions 0.9 to 4%): progressively more soluble
solubility in water ([3]; water): low solubility
Structure (SMILES): NCCNc1ccc(NCCN)c2c1C(=O)c1ccncc1C2=O.O=C(O)/C=C\C(=O)O.O=C(O)/C=C\C(=O)O [BBR 2778, 6,9-bis[(2-aminoethyl)amino]benzo[g]isoquinoline-5,10-dione dimaleate]
activity compared with mitoxantrone (YC-8 lymphoma): more active than mitoxantrone
activity compared with mitoxantrone (ascitic L1210 leukaemia): more active than mitoxantrone
cardiotoxicity [2]: lower than that of other known drugs belonging to the same class
